Experiment [1] has as its target T1, human Oxytocin Receptor (hOTR) (Homo sapiens, UniProt P30559).
T1 construct: host or cells: CHEM-1 (ready-to-assay frozen cells)
T1 sequence (P30559 1-389): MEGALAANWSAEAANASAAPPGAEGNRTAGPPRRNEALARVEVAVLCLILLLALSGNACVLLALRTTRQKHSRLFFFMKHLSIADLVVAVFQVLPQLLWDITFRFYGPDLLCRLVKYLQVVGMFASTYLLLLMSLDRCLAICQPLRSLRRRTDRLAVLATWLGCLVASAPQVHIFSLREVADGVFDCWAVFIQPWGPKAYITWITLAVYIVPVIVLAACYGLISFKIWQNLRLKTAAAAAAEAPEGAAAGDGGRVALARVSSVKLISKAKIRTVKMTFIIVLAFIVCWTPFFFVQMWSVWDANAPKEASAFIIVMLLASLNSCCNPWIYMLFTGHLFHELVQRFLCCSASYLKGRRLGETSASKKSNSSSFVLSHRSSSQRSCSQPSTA
Kind of experiment: Oxytocin receptor (OTR) antagonist assay (FLIPR calcium, CHEM-1-hOTR cells). Type of experiment: cell-based. The procedure: This assay was performed in CHEM-1 cells expressing the human Oxytocin Receptor (hOTR) to determine the inhibitory effect of the compounds of the invention on the human Oxytocin receptor. Oxytocin evokes an increase in intracellular calcium in CHEM-1-hOTR cells which is measured in a fluorescence assay on the FLIPR^TETRA using calcium sensitive dyes. Test compounds were assessed for their ability to affect the magnitude of the response to oxytocin, with antagonists showing a concentration-dependent reduction in the oxytocin-mediated fluorescence.
CHEM-1-hOTR ready was used to assay frozen cells (Eurofins #HTS09ORTA) which are supplied with a proprietary Media Component.
Day 1 of the assay: Cells were thawed in a 37° C. water bath and diluted with the supplied Media Component to a final volume of 10 ml. The cell suspension was centrifuged at 1000 rpm for 3 min at room temperature and the supernatant was discarded. The cell pellet was resuspended in Media Component (10.5 ml) and the cells (25 μL) were dispensed into a poly-D-lysine coated black, clear bottomed, 384-well plate. The plates were incubated overnight at 37° C., 5% CO2.
Day 2: At the start of each assay day the potency of oxytocin was assessed and an EC80 concentration was determined for subsequent compound profiling. Assays were performed using a two-step addition protocol on the FLIPR^TETRA; first addition of 5 μl of control or test compound at 10× final in assay buffer with 15 min incubation at 37° C., 5% CO2 followed by 10 μl of oxytocin at 6× final concentration in assay buffer. Changes in fluorescence were monitored for 3 min after both additions on the FLIPR^TETRA using 470-495 nm excitation and 515-575 nm emission wavelengths. The assay buffer consisted of HBSS (+Ca/+Mg) supplemented with 20 mM HEPES, and for the preparation of the oxytocin agonist only, 0.1% w/v bovine serum albumin. The assay was initiated by the removal of growth media from the cells and replaced with 45 μl of Calcium-6 dye (Molecular Devices) prepared at 1× in assay buffer. Cells were loaded with dye for 60-90 min at 37° C., 5% CO2 before initiation of the FLIPR^TETRA protocol. […] For compound profiling, test compounds were first serially diluted in DMSO (10-point curve, 1:3 dilutions) then diluted 33.3-fold in assay buffer prior to addition to the dye loaded cells on the FLIPR^TETRA. At the end of the incubation period 10 μl of oxytocin in assay buffer containing 0.1% BSA was added at the previously determined EC80 concentration.
In-plate controls for the assay included a L-368,899 concentration-response curve as the reference OTR antagonist and an oxytocin concentration-response curve to confirm the reproducibility of the EC80 used for the compound challenge.

Experiment [2] has as its target T2, human Arginine Vasopressin Receptor 1a (AVPR1a) (Homo sapiens, UniProt P37288).
T2 construct: expressed in transfected cells; host or cells: CHO (CHO-AVPR1a, kept under G418 selection)
Kind of experiment: Vasopressin V1a receptor antagonist assay (FLIPR calcium, CHO-AVPR1a cells). Type of experiment: cell-based. In outline: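 CHO cells expressing human AVPR1a were loaded with Calcium-6 dye and preincubated with compound for 15 min at 37° C. Cells were then challenged with AVP at its daily-determined EC80, and FLIPR fluorescence was read. Compounds were tested in duplicate as 10-point 1:3 dilutions from a top final concentration of 3 μM.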

Broadly, the IC50 is the concentration at which inhibition is half-maximal.

Structures are written as SMILES.

T2 sequence (P37288 whole entry): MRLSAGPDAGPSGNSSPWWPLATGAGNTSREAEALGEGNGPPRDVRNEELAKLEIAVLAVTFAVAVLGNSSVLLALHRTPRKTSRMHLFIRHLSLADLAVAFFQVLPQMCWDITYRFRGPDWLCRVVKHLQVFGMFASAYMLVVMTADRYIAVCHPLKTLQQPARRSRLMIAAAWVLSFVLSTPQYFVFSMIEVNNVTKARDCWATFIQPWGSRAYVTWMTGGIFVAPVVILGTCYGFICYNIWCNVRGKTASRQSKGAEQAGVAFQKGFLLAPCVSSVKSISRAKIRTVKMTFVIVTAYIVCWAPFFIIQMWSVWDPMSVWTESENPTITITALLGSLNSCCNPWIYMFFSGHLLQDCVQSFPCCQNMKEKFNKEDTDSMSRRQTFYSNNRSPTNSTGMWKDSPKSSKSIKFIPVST

For `CC1COc2cc(F)c(F)cc2N1C(=O)N1CC2(C1)CN(c1ccc(F)cn1)C2` (stereo not drawn) [19-5], the values for the IC50 in experiment [1] and in experiment [2] were 100 to 500 nM and < 100 nM, respectively.
On to `Cc1nccnc1N1CC2(CN(C(=O)N3c4ccc(Cl)cc4OCC3C)C2)C1` (stereo not drawn) [20-10], for which the IC50 in experiment [1] was 100 to 500 nM; in experiment [2] it was < 100 nM.
In the same order, the values of `CC1COc2cc(Cl)ccc2N1C(=O)N1CC2(C1)CN(c1cccnn1)C2` (single isomer, unassigned) [9-1-B] are 100 to 500 nM and < 100 nM.
In the same order, the values of `CC1COc2cc(Cl)c(F)cc2N1C(=O)N1CC2(C1)CN(c1ncccn1)C2` (stereo not drawn) [19-2] are 500 to 1000 nM and < 100 nM.
In the same order, the values of `O=C(N1CC2(C1)CN(c1cnccn1)C2)N1CCC(O)c2cc(Cl)ccc21` (stereo not drawn) [13-3] are ≥ 1000 nM and < 100 nM.
As to `Cc1ccnc(N2CC3(CN(C(=O)N4c5ccc(F)cc5OCC4C)C3)C2)c1` (single isomer, unassigned) [20-4-B], the results for the half-maximal inhibitory concentration (IC50) in experiment [1] and in experiment [2] were 500 to 1000 nM and < 100 nM, respectively.
For `CC1COc2cc(Cl)ccc2N1C(=O)N1CC2(C1)CN(c1cccnn1)C2` (stereo not drawn) [9-1, (7-chloro-3-methyl-2,3-dihydro-4H-benzo[b][1,4]oxazin-4-yl)(6-(pyridazin-3-yl)-2,6-diazaspiro[3.3]heptan-2-yl)methanone], the values for the IC50 in experiment [1] and in experiment [2] were 100 to 500 nM and < 100 nM, respectively.
For `COc1ccnc(N2CC3(CN(C(=O)N4c5ccc(Cl)cc5OCC4C)C3)C2)c1` (stereo not drawn) [20-8], in that order: 100 to 500 nM and < 100 nM.
In the same order, the values of `Cc1cnc(N2CC3(CN(C(=O)N4c5ccc(Cl)cc5OCC4C)C3)C2)cn1` (single isomer, unassigned) [20-5-B] are 100 to 500 nM and < 100 nM.
In the same order, the values of `Cc1nc(N2CC3(CN(C(=O)N4c5ccc(Cl)cc5OCC4C)C3)C2)ncc1F` (stereo not drawn) [20-7] are 100 to 500 nM and < 100 nM.
For the compound `O=C(N1CC2(C1)CN(c1ccc(F)cn1)C2)N1CCC(O)c2cc(Cl)ccc21` (stereo not drawn) [13-1, (6-chloro-4-hydroxy-3,4-dihydroquinolin-1(2H)-yl)(6-(5-fluoropyridin-2-yl)-2,6-diazaspiro[3.3]heptan-2-yl)methanone], the IC50 in experiment [1] is ≥ 1000 nM; in experiment [2], < 100 nM.
As to `COc1ccnc(N2CC3(CN(C(=O)N4c5ccc(Cl)cc5OCC4C)C3)C2)c1` (single isomer, unassigned) [20-8-B], the half-inhibitory concentration (IC50) in experiment [1] is 100 to 500 nM; in experiment [2] it was < 100 nM.
For `O=C(N1CC2(C1)CN(c1cccc(F)n1)C2)N1CCc2cc(Cl)ccc21` [1-78], the IC50 was ≥ 1000 nM in experiment [1] and < 100 nM in experiment [2].
For `O=C(N1CC2(C1)CN(c1ccc(F)cn1)C2)N1CCC(F)c2cc(Cl)ccc21` (stereo not drawn) [14-1, (6-chloro-4-fluoro-3,4-dihydroquinolin-1(2H)-yl)(6-(5-fluoropyridin-2-yl)-2,6-diazaspiro[3.3]heptan-2-yl)methanone], the concentration for half-maximal inhibition (IC50) in experiment [1] was ≥ 1000 nM; in experiment [2] it was < 100 nM.
Turning to `Cc1ccnc(N2CC3(CN(C(=O)N4c5ccc(Cl)cc5OCC4C)C3)C2)c1` (stereo not drawn) [20-11], the IC50 in experiment [1] was 100 to 500 nM; in experiment [2], < 100 nM.
For `CC1CN(C(=O)N2CC3(C2)CN(c2ccc(F)cn2)C3)c2ccc(Cl)cc2O1` (stereo not drawn) [9-3], in that order: 500 to 1000 nM and < 100 nM.
Regarding `CC1COc2cc(Cl)ccc2N1C(=O)N1CC2(C1)CN(c1cc(C#N)ccn1)C2` (stereo not drawn) [20-6], the IC50 in experiment [1] and in experiment [2] was < 100 nM in each case.
`CC1COc2cc(F)ccc2N1C(=O)N1CC2(C1)CN(c1noc3ccccc13)C2` (single isomer, unassigned) [4-3-B]: the IC50 in experiment [1] is ≥ 1000 nM; in experiment [2], < 100 nM.
In the same order, the values of `Cc1cncc(N2CC3(CN(C(=O)N4c5ccc(F)cc5OCC4C)C3)C2)n1` (stereo not drawn) [20-2] are 100 to 500 nM and < 100 nM.
For `CC1COc2cc(Cl)ccc2N1C(=O)N1CC2(C1)CN(c1cccnc1)C2` (stereo not drawn) [20-1, (7-chloro-3-methyl-2,3-dihydro-4H-benzo[b][1,4]oxazin-4-yl)(6-(pyridin-3-yl)-2,6-diazaspiro[3.3]heptan-2-yl)methanone], in that order: 100 to 500 nM and < 100 nM.
As to `CC1COc2cc(Cl)ccc2N1C(=O)N1CC2(C1)CN(c1noc3cccnc13)C2` (single isomer, unassigned) [18-3-B], the 50% inhibitory concentration (IC50) in experiment [1] was ≥ 1000 nM; in experiment [2] it was < 100 nM.
For `O=C(N1CC2(C1)CN(c1ccc(F)cn1)C2)N1CCC(O)c2cc(Cl)ccc21` (single isomer, unassigned) [13-1-A], in that order: ≥ 1000 nM and < 100 nM.
In the same order, the values of `O=C(N1CC2(C1)CN(c1ccccn1)C2)N1CCC(O)c2cc(Cl)ccc21` (single isomer, unassigned) [13-2-B] are 500 to 1000 nM and < 100 nM.
For `Cc1ccnc(N2CC3(CN(C(=O)N4c5ccc(Cl)cc5OCC4C)C3)C2)n1` (single isomer, unassigned) [20-12-B], in that order: < 100 nM and < 100 nM.
Turning to `Cc1ccnc(N2CC3(CN(C(=O)N4c5ccc(Cl)cc5OCC4C)C3)C2)n1` (stereo not drawn) [20-12], the figures for the concentration for half-maximal inhibition (IC50) in experiment [1] and in experiment [2] were 100 to 500 nM and < 100 nM, respectively.
In the same order, the values of `O=C(N1CC2(C1)CN(c1ccc(F)cn1)C2)N1CCOc2cc(Cl)ccc21` [9-7] are ≥ 1000 nM and < 100 nM.
On to `CC1COc2cc(Cl)c(F)cc2N1C(=O)N1CC2(C1)CN(c1ncccn1)C2` (single isomer, unassigned) [19-2-B], for which the results for the IC50 in experiment [1] and in experiment [2] were 500 to 1000 nM and < 100 nM, respectively.
With `O=C(N1CC2(C1)CN(c1cnccn1)C2)N1CCC(O)c2cc(Cl)ccc21` (single isomer, unassigned) [13-3-A], the half-maximal inhibitory concentration (IC50) in experiment [1] is ≥ 1000 nM; in experiment [2], < 100 nM.
For `CCC1COc2cc(Cl)ccc2N1C(=O)N1CC2(C1)CN(c1ccccn1)C2` (stereo not drawn) [11-1, (7-chloro-3-ethyl-2,3-dihydro-4H-benzo[b][1,4]oxazin-4-yl)(6-(pyridin-2-yl)-2,6-diazaspiro[3.3]heptan-2-yl)methanone], in that order: < 100 nM and < 100 nM.
For `O=C(N1CC2(C1)CN(c1ccc(F)cn1)C2)N1CCOCc2cc(Cl)ccc21` [8-4], the IC50 is ≥ 1000 nM in experiment [1] and < 100 nM in experiment [2].
Regarding `O=C(N1CC2(C1)CN(c1ccccn1)C2)N1CCOCc2cc(Cl)ccc21` [8-12], the half-maximal inhibitory concentration (IC50) is 500 to 1000 nM in experiment [1] and < 100 nM in experiment [2].
For `CC1COc2cc(Cl)c(F)cc2N1C(=O)N1CC2(C1)CN(c1cccnn1)C2` (stereo not drawn) [19-4], in that order: 100 to 500 nM and < 100 nM.
For `CC1COc2cc(F)c(F)cc2N1C(=O)N1CC2(C1)CN(c1ncccn1)C2` (single isomer, unassigned) [19-1-B], in that order: ≥ 1000 nM and < 100 nM.
For `Cc1nc(N2CC3(CN(C(=O)N4c5ccc(Cl)cc5OCC4C)C3)C2)ncc1F` (single isomer, unassigned) [20-7-B], in that order: 100 to 500 nM and < 100 nM.
In the case of `CC1COc2cc(Cl)ccc2N1C(=O)N1CC2(C1)CN(c1noc3cccnc13)C2` (stereo not drawn) [18-3], the results for the IC50 in experiment [1] and in experiment [2] were ≥ 1000 nM and < 100 nM, respectively.
Take `CC1COc2cc(F)ccc2N1C(=O)N1CC2(C1)CN(c1cc(C#N)ccn1)C2` (single isomer, unassigned) [20-3-B]: the 50% inhibitory concentration (IC50) in experiment [1] is 100 to 500 nM; in experiment [2] it was < 100 nM.
